Tests used:
[1] = Pharmacokinetic study in C57BL/6 mice; assay type: in vivo; settings: male, mouse, plasma
Protocol: (§1) The pharmacokinetics of test compounds were evaluated in male C57BL/6 mice, Sprague Dawley rats, Beagle dogs, and cynomolgus monkeys when administered via oral gavage and IV injection. The animals were fasted overnight before administration. Plasma samples were collected predose and at 0.5, 1, 3, 6, 9, 12, and 24 hours postdose. The samples were analyzed by LC/MS/MS and the concentration of test compound at each timepoint was determined by linear regression. Pharmacokinetic parameters were calculated from the plasma concentrations using Pheonix WinNonlin.

[2] = tested on: GM-CSF-induced pSTAT5 in human PBMC; assay: GM-CSF-induced pSTAT5 in human PBMC; assay type: cell-based; settings: GM-CSF 10 ng/ml
Protocol: (§2) Fresh Human PBMCs were resuspended in RPMI 1640 medium with 10% FBS. Cells were seeded in a round bottom 96-well plate at the concentration of 200,000 cells/well. A 10-point dilution series of test compound (top dose 10 uM, 1:5 dilution) was added to the well using the liquid dispenser (Tecan D300e) and incubated for 1 hour at 37 C. Then human IL-12 recombinant protein (R&D Systems) was added to the well at the final concentration of 10 ng/ml and incubated for 15 minutes at 37 C. Cell lysates were prepared and analyzed by Phospho STAT4 (Tyr693) Kit (Meso Scale Discovery) following manufacturer's protocol.
(§3) For calculation of the inhibition rate, the relative pSTAT4 signal of each well=pSTAT4 signal of each well−the average pSTAT4 signal of baseline. The inhibition %=(the average pSTAT4 signal of IL-12 treatment wells−the relative of pSTAT4 signal in each compound containing well)/the average pSTAT4 signal of IL-12 treatment wells*100%
(§4) The curve was plotted as the inhibition % (y-axis) vs. compounds concentration (x-axis) and was fitted with log(inhibitor) vs. normalized response—Variable slope by GraphPad Prism7.0. Control is BMS-986165:
(§5) Similar to the method for IL-12 induced pSTAT4 in human PBMC described above, these assays were performed to check if test compounds have cross-activity to JAK1. JAK2 and JAK3 pathways in human PBMC. The procedure is as described with change of stimuli to 10 ng/ml of GM-CSF or 20 ng/ml of IL-2.

[3] = tested on: INFα induced pSTAT5 in human PBMC; assay: INFα induced pSTAT5 in human PBMC; assay type: cell-based; settings: human PBMC, INFα 5000 units/ml; read-out: p-STAT5 IC50
[4] = tested on: IL-2-induced pSTAT5 in human PBMC; assay: IL-2-induced pSTAT5 in human PBMC; assay type: cell-based; settings: IL-2 20 ng/ml
Protocol: as §2, §3, §4, §5

[5] = Pharmacokinetic study in Sprague Dawley rats; assay type: in vivo; settings: rat, plasma; for Vd: read-out: Vdss
Protocol: as §1

[6] = Pharmacokinetic study in Beagle dogs; assay type: in vivo; settings: dog, plasma; for Vd: read-out: Vdss
Protocol: as §1

[7] = Pharmacokinetic study in cynomolgus monkeys; assay type: in vivo; settings: cynomolgus monkey, plasma; for Vd: read-out: Vdss
Protocol: as §1

JAK1 (JH2 domain) = JAK1 (JH2 domain) (Homo sapiens (Human), UniProt P23458); assay: JAK1 JH2 domain binding assay (KINOMEscan); settings: KINOMEscan; read-out: JAK1 (JH2 domain) binding Kd
Protocol: (§6) The assay is performed by combining three components: DNA-tagged kinase; immobilized ligand; and a test compound. The ability of the test compound to compete with the immobilized ligand is measured via quantitative PCR of the DNA tag.
(§7) The liganded beads were blocked with excess biotin and washed with blocking buffer (SeaBlock (Pierce), 1% BSA, 0.05% Tween 20, 1 mM DTT) to remove unbound ligand and to reduce non-specific binding. […] Test compounds were prepared as 111× stocks in 100% DMSO. All test compounds were shipped to DiscoverX in DMSO with concentration of 10 mM. Kds were determined using an 11-point 3-fold compound dilution series with three DMSO control points. Each compound was tested in duplicate. […] The compounds were then diluted directly into the assays such that the final concentration of DMSO was 0.9%. All reactions performed in polypropylene 384-well plate. Each was a final volume of 0.02 ml. […] The kinase concentration in the eluates was measured by qPCR.
(§8) The amount of kinase measured by qPCR (Signal; y-axis) is plotted against the corresponding compound concentration in nM in log 10 scale (x-axis). Binding constants (Kds) were calculated with a standard dose-response curve using the Hill equation:
(§9) Similar to the method for TYK2 JH2 binding described above, JAK1 JH2 and JAK2 JH1 domain binding assay was performed using DiscoverX's KINOMEscan™, but with change of kinase domain.

JAK2 (JH1 domain) = JAK2 (JH1 domain) (Homo sapiens (Human), UniProt O60674); assay: JAK2 JH1 domain binding assay (KINOMEscan)
Protocol: as §6, §7, §8, §9

TYK2 (JH2 domain) = TYK2 (JH2 domain) (Homo sapiens (Human), UniProt P29597); assay: TYK2 JH2 domain binding assay (DiscoverX KINOMEscan); settings: 11-point 3-fold dilution, duplicate
[8] = Oral (5 mg/kg), read-out: C0 or Cmax (Cmax)
[9] = iv, I.V. (1 mg/kg), read-out: C0 or Cmax (C0)
[10] = Oral (2 mg/kg), read-out: C0 or Cmax (Cmax)
[11] = Oral (2 mg/kg), NA: no detectable
[12] = Oral (2 mg/kg), NA: no detectable, read-out: C0 or Cmax (Cmax)

Chain of TYK2 (JH2 domain) (P29597 589-875): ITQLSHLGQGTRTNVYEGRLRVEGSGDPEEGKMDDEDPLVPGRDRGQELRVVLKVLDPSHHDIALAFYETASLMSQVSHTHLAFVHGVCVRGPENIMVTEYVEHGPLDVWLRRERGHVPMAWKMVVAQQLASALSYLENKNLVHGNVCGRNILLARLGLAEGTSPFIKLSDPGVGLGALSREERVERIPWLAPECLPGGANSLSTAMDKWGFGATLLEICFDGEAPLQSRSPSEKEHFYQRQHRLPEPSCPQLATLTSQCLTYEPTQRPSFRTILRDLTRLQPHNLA
Chain of JAK2 (JH1 domain) (O60674 849-1124): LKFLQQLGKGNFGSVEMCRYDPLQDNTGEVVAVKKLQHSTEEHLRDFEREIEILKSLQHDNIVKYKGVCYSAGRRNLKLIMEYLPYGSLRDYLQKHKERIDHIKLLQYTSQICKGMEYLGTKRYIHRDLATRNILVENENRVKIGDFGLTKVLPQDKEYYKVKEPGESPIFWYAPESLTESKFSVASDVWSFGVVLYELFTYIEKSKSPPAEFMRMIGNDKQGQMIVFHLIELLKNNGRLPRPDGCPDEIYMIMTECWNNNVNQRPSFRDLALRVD
Chain of JAK1 (JH2 domain) (P23458 583-855): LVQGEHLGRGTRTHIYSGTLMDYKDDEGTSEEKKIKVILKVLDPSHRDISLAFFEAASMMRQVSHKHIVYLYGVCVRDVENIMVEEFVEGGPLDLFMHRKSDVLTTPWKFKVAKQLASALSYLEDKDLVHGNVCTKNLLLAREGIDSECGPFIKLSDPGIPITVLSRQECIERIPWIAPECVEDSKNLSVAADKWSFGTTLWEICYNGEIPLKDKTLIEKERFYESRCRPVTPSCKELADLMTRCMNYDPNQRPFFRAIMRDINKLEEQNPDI

[2H]C([2H])([2H])CC(=O)c1cnc(NC(=O)C2CC2)cc1Nc1cccc(-c2ncn(C([2H])([2H])[2H])n2)c1OC [Example 195]
Tmax ([1]; Oral (10 mg/kg)): 0.5 h | bioavailability ([1]; Oral (10 mg/kg)): 41.7% | half-life ([1]; Oral (10 mg/kg)): 2.11 h | Cmax ([1]; Oral (10 mg/kg), read-out: C0 or Cmax (Cmax)): 4300 ng/mL | clearance ([1]; iv, I.V. (2 mg/kg)): 4.16 mL/min/kg | half-life ([1]; iv, I.V. (2 mg/kg)): 2.46 h | Cmax ([1]; iv, I.V. (2 mg/kg), read-out: C0 or Cmax (C0)): 2950 ng/mL | Vd ([1]; iv, I.V. (2 mg/kg), read-out: Vdss): 0.688 L/kg | IC50 [2]: 1000 to 10000 nM | IC50 [3]: < 100 nM | IC50 [4]: 1000 to 10000 nM | AUC ([5]; Oral (5 mg/kg)): 7440 ± 1400 ng·h/mL | Tmax ([5]; Oral (5 mg/kg)): 1.67 ± 0.58 h | bioavailability ([5]; Oral (5 mg/kg)): 46.7 ± 8.8% | half-life ([5]; Oral (5 mg/kg)): 2.37 ± 0.32 h | Cmax [5, 8]: 1260 ± 226 ng/mL | AUC ([5]; iv, I.V. (1 mg/kg)): 3190 ± 603 ng·h/mL | clearance ([5]; iv, I.V. (1 mg/kg)): 4.96 ± 0.91 mL/min/kg | half-life ([5]; iv, I.V. (1 mg/kg)): 2.14 ± 0.12 h | Cmax [5, 9]: 2150 ± 123 ng/mL | Vd ([5]; iv, I.V. (1 mg/kg)): 0.824 ± 0.11 L/kg | AUC ([6]; Oral (2 mg/kg)): 1520 ± 1330 ng·h/mL | Tmax ([6]; Oral (2 mg/kg)): 1.33 ± 0.58 h | bioavailability ([6]; Oral (2 mg/kg)): 26.2 ± 23% | half-life ([6]; Oral (2 mg/kg)): 5.73 ± 2.02 h | Cmax [6, 10]: 285 ± 285 ng/mL | AUC ([6]; iv, I.V. (1 mg/kg)): 2900 ± 453 ng·h/mL | clearance ([6]; iv, I.V. (1 mg/kg)): 5.31 ± 0.93 mL/min/kg | half-life ([6]; iv, I.V. (1 mg/kg)): 6.69 ± 0.39 h | Cmax [6, 9]: 185 ± 8.4 ng/mL | Vd ([6]; iv, I.V. (1 mg/kg)): 3.04 ± 0.27 L/kg | AUC [7, 11]: 5420 ± 3250 ng·h/mL | Tmax [7, 11]: 4 h | bioavailability [7, 11]: 16.6 ± 9.95% | half-life [7, 11]: 5.8 ± 0.73 h | Cmax [7, 12]: 663 ± 497 ng/mL | AUC ([7]; iv, I.V. (1 mg/kg)): 16300 ± 664 ng·h/mL | clearance ([7]; iv, I.V. (1 mg/kg)): 0.898 ± 0.04 mL/min/kg | half-life ([7]; iv, I.V. (1 mg/kg)): 7.65 ± 0.56 h | Cmax [7, 9]: 1290 ± 106 ng/mL | Vd ([7]; iv, I.V. (1 mg/kg)): 0.624 ± 0.03 L/kg

[2H]C([2H])([2H])CC(=O)c1cnc(Nc2cccc(C#N)n2)cc1Nc1cccc(-c2ncn(C([2H])([2H])[2H])n2)c1OC [Example 198]
Kd (JAK1 (JH2 domain)): < 100 nM | IC50 [2]: 1000 to 10000 nM | Kd (JAK2 (JH1 domain)): > 10000 nM | IC50 [3]: < 100 nM | IC50 [4]: 100 to 1000 nM | AUC ([5]; Oral (5 mg/kg)): 1190 ± 53 ng·h/mL | Tmax ([5]; Oral (5 mg/kg)): 1 ± 0.87 h | bioavailability ([5]; Oral (5 mg/kg)): 16.9 ± 0.76% | half-life ([5]; Oral (5 mg/kg)): 2.85 ± 2.8 h | Cmax [5, 8]: 261 ± 35 ng/mL | AUC ([5]; iv, I.V. (1 mg/kg)): 1400 ± 29 ng·h/mL | clearance ([5]; iv, I.V. (1 mg/kg)): 11.8 ± 0.22 mL/min/kg | half-life ([5]; iv, I.V. (1 mg/kg)): 1.22 ± 0.12 h | Cmax [5, 9]: 1200 ± 70 ng/mL | Vd ([5]; iv, I.V. (1 mg/kg)): 1.1 ± 0.065 L/kg | Kd (TYK2 (JH2 domain)): ≤ 1 nM | AUC ([6]; Oral (2 mg/kg)): 253 ± 48 ng·h/mL | Tmax ([6]; Oral (2 mg/kg)): 1.67 ± 0.58 h | bioavailability ([6]; Oral (2 mg/kg)): 54 ± 10% | half-life ([6]; Oral (2 mg/kg)): 1.42 ± 0.24 h | Cmax [6, 10]: 68.8 ± 18 ng/mL | AUC ([6]; iv, I.V. (1 mg/kg)): 234 ± 94 ng·h/mL | clearance ([6]; iv, I.V. (1 mg/kg)): 68.6 ± 28 mL/min/kg | half-life ([6]; iv, I.V. (1 mg/kg)): 4.29 ± 1.25 h | Cmax [6, 9]: 182 ± 47.6 ng/mL | Vd ([6]; iv, I.V. (1 mg/kg)): 23.1 ± 4.59 L/kg | AUC [7, 11]: 1230 ± 435 ng·h/mL | Tmax [7, 11]: 4 h | bioavailability [7, 11]: 59.4 ± 21.1% | half-life [7, 11]: 1.28 ± 0.18 h | Cmax [7, 12]: 246 ± 124 ng/mL | AUC ([7]; iv, I.V. (1 mg/kg)): 1030 ± 159 ng·h/mL | clearance ([7]; iv, I.V. (1 mg/kg)): 16.1 ± 2.4 mL/min/kg | half-life ([7]; iv, I.V. (1 mg/kg)): 1.45 ± 0.22 h | Cmax [7, 9]: 667 ± 82 ng/mL | Vd ([7]; iv, I.V. (1 mg/kg)): 1.94 ± 0.03 L/kg

— US11053219B2, “Substituted pyridines as TYK2 inhibitors” (FronThera U.S. Pharmaceuticals LLC, priority 2018, dated 2021)
